US7381841B2, “Pentafluorosulfanylphenyl-substituted benzoylguanidines, processes for their preparation, their use as medicament or diagnostic aid, and medicament comprising them” (Sanofi-Aventis Deutschland GmbH, priority 2003, dated 2008)

Legend:
[1] = target: T1, human NHE-1 (Homo sapiens, UniProt P19634); test: NHE-1 inhibition, FLIPR assay measuring recovery of pHi in transfected cell lines; type: cell-based; conditions: pHi recovery in transfected LAP-1 cell lines expressing human NHE-1, read-out: NHE1 inhibition IC50
T1 construct: expressed in transfected cells; host or cells: LAP-1 (parental cell line without endogenous NHE activity), G418-selected transfectants
T1 sequence (P19634 whole entry): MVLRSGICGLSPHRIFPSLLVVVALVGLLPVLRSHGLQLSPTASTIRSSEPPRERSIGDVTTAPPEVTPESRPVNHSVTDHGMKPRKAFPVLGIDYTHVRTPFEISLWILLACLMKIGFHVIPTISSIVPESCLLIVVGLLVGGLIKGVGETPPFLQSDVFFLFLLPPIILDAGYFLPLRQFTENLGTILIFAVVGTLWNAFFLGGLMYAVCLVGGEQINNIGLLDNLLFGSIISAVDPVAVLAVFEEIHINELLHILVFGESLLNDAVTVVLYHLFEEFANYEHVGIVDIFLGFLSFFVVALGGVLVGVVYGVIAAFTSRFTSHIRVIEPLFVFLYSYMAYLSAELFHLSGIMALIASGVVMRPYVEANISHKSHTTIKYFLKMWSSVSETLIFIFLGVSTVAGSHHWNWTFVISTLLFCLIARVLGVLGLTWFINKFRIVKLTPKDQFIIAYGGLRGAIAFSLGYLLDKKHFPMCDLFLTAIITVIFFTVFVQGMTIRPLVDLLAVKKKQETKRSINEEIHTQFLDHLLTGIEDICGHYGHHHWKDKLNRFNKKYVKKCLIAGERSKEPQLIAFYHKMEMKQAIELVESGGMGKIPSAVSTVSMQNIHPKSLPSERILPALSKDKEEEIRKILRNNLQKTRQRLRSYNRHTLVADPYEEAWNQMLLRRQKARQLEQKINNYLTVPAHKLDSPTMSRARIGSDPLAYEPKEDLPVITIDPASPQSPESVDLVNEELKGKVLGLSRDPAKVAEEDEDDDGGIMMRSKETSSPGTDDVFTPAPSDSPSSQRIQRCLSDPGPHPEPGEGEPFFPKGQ
Protocol: The NHE-1 inhibition IC50 was determined in an FLIPR assay by measurement of the recovery in pHi in transfected cell lines which express human NHE-1.
The assay was carried out in an FLIPR (fluorescent imaging plate reader) with black-walled 96-well microtiter plates with clear bases.
The growth medium for the transfected cells (Iscove+10% fetal calf serum) additionally contained G418 as selection antibiotic in order to ensure the presence of the transfected sequences.
The actual assay started with the removal of the growth medium and addition of 100 μl of loading buffer per well (5 μM BCECF-AM [2′,7′-bis(carboxyethyl)-5- (and -6-)carboxyfluorescein, acetoxymethyl ester] in 20 mM NH4Cl, 115 mM choline chloride, 1 mM MgCI2, 1 mM CaCI2, 5 mM KCI, 20 mM HEPES, 5 mM glucose; pH 7.4 [adjusted with KOH]). The cells were then incubated at 37° C. for 20 minutes. This incubation led to loading of the cells with the fluorescent dye whose fluorescence intensity depends on pHi, and with NH4Cl which makes the cells slightly alkaline. The nonfluorescent dye precursor BCECF-AM is, as ester, membrane-permeable. The actual dye BCECF is not membrane-permeable but is liberated inside cells by esterases.
After this incubation for 20 minutes, the loading buffer which contained NH4Cl and free BCECF-AM was removed by washing three times in a cell washer (Tecan Columbus) with in each case 400 μl of washing buffer (133.8 mM choline chloride, 4.7 mM KCI, 1.25 mM MgCI2, 1.25 mM CaCI2, 0.97 mM K2HPO4, 0.23 mM KH2PO4, 5 mM HEPES, 5 mM glucose; pH 7.4 [adjusted with KOH]). The residual volume remaining in the wells was 90 μl (50-125 μl possible). This washing step removed the free BCECF-AM and resulted, as a consequence of the removal of the external NH4^+ ions, in intracellular acidification (˜pHi 6.3-6.4).
This may eventually lead to cell death if it persists long enough.
It was important at this point that the washing buffer was sodium-free (<1 mM) because extracellular sodium ions would lead to an instantaneous recovery of the pHi through the activity of the cloned NHE isoforms.
It was likewise important for all the buffers used (loading buffer, washing buffer, recovery buffer) not to contain any HCO3^− ions, because the presence of bicarbonate would lead to activation of interfering bicarbonate-dependent pHi regulatory systems present in the parental LAP-1 cell line.
The microtiter plates with the acidified cells were then (up to 20 minutes after the acidification) transferred to the FLIPR. In the FLIPR, the intracellular fluorescent dye was excited by light with a wavelength of 488 nm generated by an argon laser, and the measured parameters (laser power, illumination time and aperture of the CCD camera incorporated in the FLIPR) were chosen so that the average fluorescence signal per well was between 30 000 and 35 000 relative fluorescence units.
The actual measurement in the FLIPR started with a photograph being taken by the CCD camera every two seconds under software control. After ten seconds, the recovery of the intracellular pH was initiated by adding 90 μl of recovery buffer (133.8 mM NaCl, 4.7 mM KCI, 1.25 mM MgCI2, 1.25 mM CaCI2, 0.97 mM K2HPO4, 0.23 mM KH2PO4, 10 mM HEPES, 5 mM glucose; pH 7.4 [adjusted with NaOH]) by means of the 96-well pipettor incorporated in the FLIPR.
Positive control wells (100% NHE activity) were those to which pure recovery buffer was added, while negative controls (0% NHE activity) received washing buffer. Recovery buffer with twice the concentration of test substance was added to all the other wells. Measurement in the FLIPR terminated after 60 measurements (two minutes).
The raw data are exported into the ActivityBase program. This program firstly calculates the NHE activities for each tested substance concentration and, from these, the IC50 values for the substances. […]

[2] = In vivo pharmacokinetics, profiling with the "n in one method"; conditions: iv; fasting male beagle dog, single i.v. bolus into jugular vein, about 1 mg/kg of each substance, given together, plasma; read-out: Half-life t½ (converted)
Protocol: In vivo pharmacokinetics—profiling with the “n in one method”
The exposure data and the half-life were determined as characteristic follows:
Two NHE-1 inhibiotors of the invention (example 1 and example 9) and a known NHE-1 reference subtance (cariporide)
[drawing 36] where dissolved in the slightly acidic aqueous medium (water, pH 4, adjusted with 1 M hydrochloric acid). The concentration of the aqueous formulation prepared in this way was about 1.5 mg of each substance per 1 g of solution. 10 ml of this formulation were administered once as bolus by means of a catheter into the jugular vein of a fasting male beagle dog (dose about 1 mg of each administered substance per kg of the dog's body weight). Blood samples were obtained by means of a second catheter after 5 min, 15 min, 30 min, 1 h, 2 h, 4 h, 8 h and 24 h, and heparinized plasma was prepared by centrifugation at 1000 G in appropriate plasma tubes.
The plasma samples were worked up and quantified by MS/MS after an HPLC separation. Simultaneous determination of a plurality of substances was possible with this method owing to its high specificity. The half-lives could be calculated using the WinNonlin computer program from the concentration-time plots (see FIG. 1) and compared with the half-life of the known NHE-1 reference substance. Since the various substances were measured in the same animal at the same time, the result was an accurate comparison of the compounds, and a ranking of the half-lives was possible.

Structure (SMILES) | IC50 [1] [nM] | half-life [2] [h] | melting point [°C]
Cc1cc(Oc2cccc(S(F)(F)(F)(F)F)c2)c(S(C)(=O)=O)cc1C(=O)N=C(N)N [Example 1, N-[5-Methanesulfonyl-2-methyl-4-(3-pentafluorosulfanylphenoxy)-benzoyl]guanidine] | 3.9 | 20.2 | 166 to 168
Cc1cc(Oc2ccc(S(F)(F)(F)(F)F)cc2)c(S(C)(=O)=O)cc1C(=O)N=C(N)N [Example 2, N-[5-Methanesulfonyl-2-methyl-4-(4-pentafluorosulfanylphenoxy)-benzoyl]guanidine] | 1.9 |  | 
Cc1cc(Sc2ccc(S(F)(F)(F)(F)F)cc2)c(S(C)(=O)=O)cc1C(=O)N=C(N)N [Example 3, N-[5-Methanesulfonyl-2-methyl-4-(4-pentafluorosulfanylphenylsulfanyl)benzoyl]-guanidine] | 4.7 |  | 
Cc1cc(S(=O)(=O)c2ccc(S(F)(F)(F)(F)F)cc2)c(S(C)(=O)=O)cc1C(=O)N=C(N)N [Example 4, N-[5-Methanesulfonyl-2-methyl-4-(4-pentafluorosulfanylphenylsulfonyl)-benzoyl]guanidine] | 4670 |  | 
Cc1cc(Nc2cccc(S(F)(F)(F)(F)F)c2)c(S(C)(=O)=O)cc1C(=O)N=C(N)N [Example 5, N-[5-Methanesulfonyl-2-methyl-4-(3-pentafluorosulfanylphenylamino)-benzoyl]guanidine] | 6.4 |  | 
Cc1cc(Nc2ccc(S(F)(F)(F)(F)F)cc2)c(S(C)(=O)=O)cc1C(=O)N=C(N)N [Example 6, N-[5-Methanesulfonyl-2-methyl-4-(4-pentafluorosulfanylphenyl-amino)benzoyl]guanidine] | 27.1 |  | 
Cc1cc(N(C)c2cccc(S(F)(F)(F)(F)F)c2)c(S(C)(=O)=O)cc1C(=O)N=C(N)N [Example 7, N-{5-Methanesulfonyl-2-methyl-4-[methyl-(3-pentafluorosulfanylphenyl)-amino]benzoyl}guanidine] | 14.5 |  | 
Cc1cc(N(C)c2ccc(S(F)(F)(F)(F)F)cc2)c(S(C)(=O)=O)cc1C(=O)N=C(N)N [Example 8, N-{5-Methanesulfonyl-2-methyl-4-[methyl-(4-pentafluorosulfanyl-phenyl)amino]benzoyl}guanidine] | 3.7 |  | 
Cc1cc(-c2ccc(S(F)(F)(F)(F)F)cc2)c(S(C)(=O)=O)cc1C(=O)N=C(N)N [Example 9, N-(2-Methanesulfonyl-5-methyl-4′-pentafluorosulfanylbiphenyl-4-carbonyl)guanidine] | 2.1 | 39.9 | 238 to 240
Cc1cc(-c2cccc(S(F)(F)(F)(F)F)c2)c(S(C)(=O)=O)cc1C(=O)N=C(N)N [Example 10, N-(2-Methanesulfonyl-5-methyl-3′-pentafluorosulfanylbiphenyl-4-carbonyl)guanidine] | 38.8 |  | 169 to 175
Cc1cc(-c2ccc(S(F)(F)(F)(F)F)cc2C)c(S(C)(=O)=O)cc1C(=O)N=C(N)N [Example 11, N-(2-Methanesulfonyl-5,2′-dimethyl-4′-pentafluorosulfanylbiphenyl-4-carbonyl)guanidine] | 81.5 |  | 
CC(C)c1ccc(C(=O)N=C(N)N)cc1S(C)(=O)=O.CS(=O)(=O)O [cariporide, reference compound] |  | 4.1 | 
